Results taken from the supplement of paper PMC7600603.

Legend:
DLD1 NRF2-GOF [1] = conditions: 72 h; CellTiter-Glo viability
How it was run: (§1)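 In 384-well plates, library compounds were applied at 5 concentrations spanning a 10,000-fold range to isogenic DLD1 colorectal cancer cells, NRF2 wild-type or CRISPR gain-of-function, maintained in DMEM with 10% FBS. A Pherastar FS reader recorded CellTiter-Glo signal at 72 h, with normalisation to vehicle wells and 100-μM positive-control wells. Curves were fitted with a four-parameter logistic model. EC50 and drug sensitivity score, a normalised area under the curve, came from those curves.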

DLD1 NRF2-GOF [2] = assay: drug sensitivity score (DSS) viability (DSS score); higher = more sensitive; extreme values may be limits of the assay; conditions: 72 h; CellTiter-Glo viability
How it was run: as §1

DLD1 NRF2-WT [3] = assay: TC50 cytotoxicity; higher = less toxic; conditions: 72 h; CellTox Green cytotoxicity
How it was run: (§2)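 In 384-well plates, isogenic DLD1 cells with NRF2 wild-type or CRISPR-edited status, grown in DMEM with 10% FBS, received library compounds at 5 concentrations spanning a 10,000-fold range. At 72 h, CellTox Green signals were read on a Pherastar FS reader and scaled between vehicle wells and 100-μM positive-control wells. Cytotoxicity endpoints, TC50 and a drug sensitivity score based on normalised area under the curve, came from logistic dose-response fits.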

DLD1 NRF2-GOF [4] = assay: TC50 cytotoxicity; higher = less toxic; conditions: 72 h; CellTox Green cytotoxicity
How it was run: as §2

DLD1 NRF2-WT [5] = assay: drug sensitivity score (DSS) cytotoxicity (DSS score); higher = more toxic; extreme values may be limits of the assay; conditions: 72 h; CellTox Green cytotoxicity
How it was run: as §2

DLD1 NRF2-GOF [6] = assay: as above; conditions: 72 h; CellTox Green cytotoxicity
How it was run: as §2

DLD1 NRF2-WT [7] = assay: drug sensitivity score (DSS) viability (DSS score); higher = more sensitive; extreme values may be limits of the assay; conditions: 72 h; CellTiter-Glo viability
How it was run: as §1

DLD1 NRF2-WT [8] = conditions: 72 h; CellTiter-Glo viability
How it was run: as §1

Row | Compound | EC50 viability (DLD1 NRF2-GOF [1]) [µM] | drug sensitivity score (DLD1 NRF2-GOF [2]) | TC50 cytotoxicity (DLD1 NRF2-WT [3]) [µM] | TC50 cytotoxicity (DLD1 NRF2-GOF [4]) [µM] | drug sensitivity score (DLD1 NRF2-WT [5]) | drug sensitivity score (DLD1 NRF2-GOF [6]) | drug sensitivity score (DLD1 NRF2-WT [7]) | EC50 viability (DLD1 NRF2-WT [8]) [µM]
1 | O=C(c1cc(Cc2n[nH]c(=O)c3ccccc23)ccc1F)N1CCN(C(=O)C2CC2)CC1 [Olaparib] | 1.4 | 2.6 | > 10 | > 10 | 0 | 0 |  | 
2 | Cn1nnc2c(C(N)=O)ncn2c1=O [Temozolomide] | 8.09 | 4.1 | > 100 | > 100 | 0 | 0 |  | 
3 | CC(C)C(=O)Nc1ccc([N+](=O)[O-])c(C(F)(F)F)c1 [Flutamide] | 0.796 | 4.6 | > 10 | > 10 | 0 | 0 | 0.9 | 
4 | CCC1=C[C@@H]2CN(C1)Cc1c([nH]c3ccccc13)[C@@](C(=O)OC)(c1cc3c(cc1OC)N(C)[C@H]1[C@@](O)(C(=O)OC)[C@H](OC(C)=O)[C@]4(CC)C=CCN5CC[C@]31[C@@H]54)C2 [Vinorelbine] | 0.0051 | 32.2 |  | > 10 | 8.1 | 7.5 |  | 
5 | Cn1cnc2c(F)c(Nc3ccc(Br)cc3Cl)c(C(=O)NOCCO)cc21 [Selumetinib] | > 10 | 0 | > 10 | > 10 | 0 | 0 | 2 | 
6 | Cc1noc2c1-c1ccccc1C(c1ccc(Cl)cc1)=N[C@H]2CC(N)=O [CPI-0610] | 0.362 | 3.6 | > 10 | > 10 | 0 | 0 |  | 
7 | CC(C)Cn1cnc2c(N)nc3ccccc3c21 [Imiquimod] | 0.0443 | 3.9 | > 2.5 | > 2.5 | 0 | 0 |  | 
8 | O=C(CCCCCCC(=O)Nc1ccc([C@H]2O[C@@H](CSc3nc(-c4ccccc4)c(-c4ccccc4)o3)C[C@@H](c3ccc(CO)cc3)O2)cc1)NO [Tubacin] | 1.71 | 3 | > 10 | > 10 | 0 | 0 | 2.7 | 
9 | O=C(c1ccc(OCCN2CCCCC2)cc1)c1c(-c2ccc(O)cc2)sc2cc(O)ccc12 [Raloxifene] | 2.1 | 3.2 |  |  |  |  |  | 
10 | COc1cccc2c1C(=O)c1c(O)c3c(c(O)c1C2=O)C[C@@](O)(C(=O)CO)C[C@@H]3O[C@H]1C[C@H](N)[C@@H](O)[C@H](C)O1 [Epirubicin] | 0.153 | 8.6 | > 1 | > 1 | 0 | 0 |  | 
11 | O=C1CCC(N2C(=O)c3ccccc3C2=O)C(=O)N1 (stereo not given) [Thalidomide] | > 10 | 0.7 | > 10 | > 10 | 0 | 0 |  | 
12 | CC(C)C[C@H](NC(=O)[C@@H](COC(C)(C)C)NC(=O)[C@H](Cc1ccc(O)cc1)NC(=O)[C@H](CO)NC(=O)[C@H](Cc1c[nH]c2ccccc12)NC(=O)[C@H](Cc1cnc[nH]1)NC(=O)[C@@H]1CCC(=O)N1)C(=O)N[C@@H](CCCNC(=N)N)C(=O)N1CCC[C@H]1C(=O)NNC(N)=O [Goserelin] | > 10 | 0 | > 10 | > 10 | 0 | 0 | 4.5 | 
13 | C#Cc1cccc(Nc2ncnc3cc4c(cc23)OCCOCCOCCO4)c1 [Icotinib] |  | 0.7 | > 10 | > 10 | 0 | 0 | 2.5 | 1.54
14 | Cn1ncnc1[C@H]1c2n[nH]c(=O)c3cc(F)cc(c23)N[C@@H]1c1ccc(F)cc1 [Talazoparib] | > 1 | 2.4 | > 1 | > 1 | 0 | 0 | 5.6 | 
15 | Cc1c(-c2c(-c3ccc(F)o3)sc3ncnc(O[C@H](Cc4ccccc4OCc4ccnn4CC(F)(F)F)C(=O)O)c23)ccc(OCCN2CCN(C)CC2)c1Cl | > 1 | 0 | > 1 | > 1 | 0 | 0 | 3.6 | 
16 | Cc1nc2cccc(N)c2c(=O)n1C1CCC(=O)NC1=O (stereo not given) [CC122] |  | 2.7 | > 10 | > 10 | 0 | 0 | 3.2 | > 10
17 | CC(C)(O)CC(=O)NCCn1ccc2ncnc(Nc3ccc(Oc4cccc(C(F)(F)F)c4)c(Cl)c3)c21 [TAK-285] |  | 3.7 | > 2.5 | > 2.5 | 0 | 0 | 5.4 | 0.0595
18 | CC/C(=C(\c1ccc(O)cc1)c1ccc(OCCN(C)C)cc1)c1ccccc1 [4-hydroxytamoxifen] | 0.0088 | 10.6 | > 10 | > 10 | 0 | 0 | 5 | 
19 | CCC(C)(C)C(=O)O[C@H]1C[C@@H](C)C=C2C=C[C@H](C)[C@H](CC[C@@H]3C[C@@H](O)CC(=O)O3)[C@H]21 [Simvastatin] | 0.571 | 3.8 |  |  |  |  | 0 | 
20 | Nc1cc(COc2c(Cl)cc(C[C@H](N)C(=O)O)cc2Cl)c2oc(-c3ccccc3)nc2c1 [JPH203] |  | 5.3 | > 5 | > 5 | 0 | 0 | 4.2 | > 5
21 | FC(F)(F)c1ccc(/C=C/c2nc(COc3ccc(CCCCn4ccnn4)cc3)co2)cc1 [Mubritinib] |  | 2.4 | > 1 | > 1 | 0 | 0 | 7.4 | 0.0334
22 | Cc1cc(F)c(C(=O)Nc2cccc(-c3nncn3C(C)C)n2)cc1-n1cnc(C2CC2)c1 [Selonsertib] |  | 3.7 | > 1 | > 1 | 0 | 0 | 4.9 | 0.0133

Row | Compound | EC50 viability (DLD1 NRF2-GOF [1]) [µM] | drug sensitivity score (DLD1 NRF2-GOF [2]) | TC50 cytotoxicity (DLD1 NRF2-WT [3]) [µM] | TC50 cytotoxicity (DLD1 NRF2-GOF [4]) [µM] | drug sensitivity score (DLD1 NRF2-WT [5]) | drug sensitivity score (DLD1 NRF2-GOF [6]) | drug sensitivity score (DLD1 NRF2-WT [7]) | EC50 viability (DLD1 NRF2-WT [8]) [µM]
23 | NCC(=O)Nc1ccc(-n2nc(C(F)(F)F)cc2-c2ccc3c(ccc4ccccc43)c2)cc1 | > 25 | 0 | > 25 | > 25 | 0 | 0 | 0.8 | 
24 | O=C(Nc1cnn2ccc(N3CCC[C@@H]3c3cc(F)ccc3F)nc12)N1CC[C@H](O)C1 [Larotrectinib] | > 1 | 0.5 | > 1 | > 1 | 0 | 0 |  | 
25 | N[C@@H]1CCCN(c2c(/C=C3\SC(=O)NC3=O)cccc2-c2ccccc2)C1 [AZD1208] | > 10 | 7.2 | > 10 | > 10 | 0 | 0 |  | 
26 | CC1(C)NC(=O)N(c2ccc([N+](=O)[O-])c(C(F)(F)F)c2)C1=O [Nilutamide] |  | 3.6 | > 10 | > 10 | 0 | 0 | 0 | > 10
27 | CN(C)CC#Cc1ccc(OCCCc2sc(N3CCc4cccc(C(=O)Nc5nc6ccccc6s5)c4C3)nc2C(=O)O)c(F)c1 | > 10 | 0 |  | 0.994 |  | 3.3 |  | 
28 | COc1cc2ncnc(Oc3cccc(NC(=O)Nc4cc(C(C)(C)C(F)(F)F)on4)c3)c2cc1OC |  | 0.6 | > 10 | > 10 | 0 | 0 | 1.4 | > 10
29 | CCc1nc(C(N)=O)c(Nc2ccc(N3CCC(N4CCN(C)CC4)CC3)c(OC)c2)nc1NC1CCOCC1 [Gilteritinib] |  | 1.4 | > 1 | > 1 | 0 | 0 | 2.9 | 0.251
30 | COCCNCc1ccc(-c2cc3nccc(Oc4ccc(NC(=O)C5(C(=O)Nc6ccc(F)cc6)CC5)cc4F)c3s2)nc1 [Sitravatinib] |  | 5.5 | > 2.5 | > 2.5 | 0 | 0 | 4.6 | 0.138
31 | Nc1ncnc2c1c(COc1cccc(Cl)c1)nn2C1CCOCC1 | > 10 | 0.6 | > 10 | > 10 | 0 | 0 |  | 
32 | O=C(CCCCCCC(=O)Nc1ccccc1)NO [Vorinostat] | 3.55 | 3.5 | 2.24 | > 10 | 2.2 | 0 |  | 
33 | Cn1cncc1[C@@](N)(c1ccc(Cl)cc1)c1ccc2c(c1)c(-c1cccc(Cl)c1)cc(=O)n2C [Tipifarnib] |  | 6.2 | > 10 | > 10 | 0 | 0 | 5.4 | 0.109
34 | O=c1[nH]c(C2CCCN2)nc2c1oc1ccc(Cl)cc12 (stereo not given) |  | 0.7 | > 10 | > 10 | 0 | 0 | 0.9 | > 10
35 | C[C@H](Nc1ncnc2[nH]cnc12)c1cc2ccc(F)cc2nc1-c1ccccn1 [AMG319] | > 1 | 1.6 | > 1 | > 1 | 0 | 0 |  | 
36 | CS(=O)(=O)c1ccc(-c2cnc(N)c(C(=O)Nc3ccccc3)n2)cc1 [VE-821] |  | 0.9 | > 10 | > 10 | 0 | 0 | 0.2 | > 10
37 | C/C=C1\NC(=O)[C@H]2CSSCC/C=C/[C@H](CC(=O)N[C@H](C(C)C)C(=O)N2)OC(=O)[C@H](C(C)C)NC1=O [Romidepsin] | 0.006 | 23.4 | 0.105 | 0.121 | 9.6 | 2.9 |  | 
38 | Oc1ncnc2[nH]ncc12 [Allopurinol] | > 10 | 0 | > 10 | > 10 | 0 | 0 |  | 
39 | CC1(C)C(C(=O)Nc2ccc(S(=O)(=O)c3ccc(NC(=O)C4C(C)(C)C4(C)C)cc3)cc2)C1(C)C [BRD7116] | 0.0482 | 7.6 |  |  |  |  | 5.5 | 
40 | Cc1c(N)nc([C@H](CC(N)=O)NC[C@H](N)C(N)=O)nc1C(=O)N[C@H](C(=O)N[C@H](C)[C@@H](O)[C@H](C)C(=O)N[C@H](C(=O)NCCc1nc(-c2nc(C(=O)NCCC[S+](C)C)cs2)cs1)[C@@H](C)O)[C@@H](O[C@@H]1O[C@@H](CO)[C@@H](O)[C@H](O)[C@@H]1O[C@H]1O[C@H](CO)[C@@H](O)[C@H](OC(N)=O)[C@@H]1O)c1c[nH]cn1 [Bleomycin] |  | 2.6 | > 10 | > 10 | 0 | 0 | 0.4 | > 10
41 | CO[C@H]1C[C@@H]2CC[C@@H](C)[C@@](O)(O2)C(=O)C(=O)N2CCCC[C@H]2C(=O)O[C@H]([C@H](C)C[C@@H]2CC[C@@H](OP(C)(C)=O)[C@H](OC)C2)CC(=O)[C@H](C)/C=C(\C)[C@@H](O)[C@@H](OC)C(=O)[C@H](C)C[C@H](C)/C=C/C=C/C=C/1C [Ridaforolimus] | > 0.1 | 0.8 |  |  |  |  | 3.5 | 
42 | CC(C)Oc1ccc(C(=O)N[C@H](CNC(=O)CN(C)C)Cc2ccc(-c3cn4cccc([C@H](C)O)c4n3)cc2)cc1Cl | 0.182 | 10.7 | > 10 | > 10 | 0 | 0 |  | 
43 | CC1(C)CNc2cc(NC(=O)c3cccnc3NCc3ccncc3)ccc21 [Motesanib] |  | 3.1 | > 10 | > 10 | 0 | 0 | 4.5 | 0.565
